# Laboratory results published in ChEMBL document CHEMBL4732177 (J Med Chem, 2021).
# Calls of active or inactive are those of the source. Numbered stars: 1 amine (or outer) side, 2 acyl side, 3 side chain; on linkers, the order of the positions; unused ones are H or OH. Bridge positions count the residues as written; N and C are the ends. Square brackets hold non-standard residues; d marks the D form. Peptide text beside a SMILES is read from it. ξ: configuration not given here. X3 = NCCCC[C@H](N)CN([C@@H](CCCCN)C(=O)[*:2])[*:1]; NMeR = CN[C@@H](CCCNC(=N)N)C(=O)O; Aad = N[C@@H](CCCC(=O)O)C(=O)O; Pen = CC(C)(S)[C@H](N)C(=O)O; Tle = CC(C)(C)[C@H](N)C(=O)O; ξP = O=C(O)C1CCCN1
# Tests used:
# Rattus norvegicus [1] = test: Antinociceptive activity in Sprague-Dawley rat model assessed as increased in tail withdrawal latency administered intrathecally measured every 10 mins for 60 mins by radiant heat tail-flick test; type: functional, organism-based; conditions: dose 10-150 µg/kg
# [2] = Cardiotoxicity in Sprague-Dawley rat assessed as decrease in mean arterial blood pressure at 0.1 mg/kg, iv measured up to 1000 seconds; type: toxicity, organism-based; conditions: in vivo, time <=1000 sec
# [3] = Cardiotoxicity in Sprague-Dawley rat assessed as decrease in mean arterial blood pressure at 0.01 to 1 mg/kg, iv measured up to 1000 seconds; type: toxicity, organism-based; conditions: in vivo, dose 0.01-1 mg/kg, time <=1000 sec
# Ileum [4] = test: Myorelaxant activity in Sprague-Dawley rat ileum assessed as reduction in carbachol-induced contractions at 10 ^-11 to 10^-5 M by force transducer relaxation assay; type: tissue-based; conditions: dose lower 1e-05 µM, dose upper 10 µM
# Rattus norvegicus [5] = test: Antinociceptive activity in Sprague-Dawley rat model assessed as effective dose administered intrathecally and measured every 10 mins for 60 mins by radiant heat tail-flick test; type: functional; conditions: central, 1 h
# Rattus norvegicus [6] = test: Antinociceptive activity in Sprague-Dawley rat model assessed as effective dose administered intrathecally and co-treated with opioid antagonist naloxone and measured every 10 mins for 60 mins by radiant heat tail-flick test; type: functional, organism-based
# [7] = Cardiotoxicity in Sprague-Dawley rat assessed as induction of […] at 1 mg/kg, iv measured up to 1000 seconds; type: toxicity, organism-based; conditions: in vivo, 0.2778 h, time 1000 sec
# Rattus norvegicus [8] = test: Antinociceptive activity in Sprague-Dawley rat model assessed as maximum possible effect at 60 microg/kg, IT measured every 10 mins for 60 mins by radiant heat tail-flick test relative to control; type: functional; conditions: dose 60 µg/kg, 1 h
# [9] = target: T1, Neurotensin receptor type 2 (Homo sapiens, UniProt O95665); test: Displacement of [125I]Tyr3-neurotensin from human recombinant NTS2 stably expressed in human 1321N1 cell membranes incubated for 60 mins by gamma counter analysis; design: species or system Cell membrane
# [10] = Stability of compound in rat plasma assessed as half life at 1 mM incubated for 1 to 20 mins by UPLC-MS analysis; type: ADME, cell-free; conditions: time 1-20 min
# [11] = target: T2, Neurotensin receptor type 1 (Homo sapiens, UniProt P30989); test: Displacement of [125I]Tyr3-neurotensin from human recombinant NTS1 stably expressed in CHO-K1 cell membranes incubated for 60 mins by gamma counter analysis; design: species or system Cell membrane
# Rattus norvegicus [12] = test: Antinociceptive activity in Sprague-Dawley rat model of formalin-induced nociception pain assessed as reduction in pain behaviour by measuring less lifting of formalin injected hind paw during inflammatory phase at 30 to 150 microg/kg, IT; type: functional, organism-based; conditions: dose 30-150 µg/kg, time 21-60 min
# Rattus norvegicus [13] = test: Antinociceptive activity in Sprague-Dawley rat model assessed as maximum efficacy causing increase in tail withdrawal latency administered intrathecally measured every 10 mins for 60 mins by radiant heat tail-flick test; type: functional; conditions: 1 h
# Rattus norvegicus [14] = test: Antinociceptive activity in Sprague-Dawley rat model assessed as maximum possible effect at 150 microg/kg, IT measured every 10 mins for 60 mins by radiant heat tail-flick test relative to control; type: functional; conditions: dose 150 µg/kg, 1 h
# Rattus norvegicus [15] = test: Antiallodynic activity in Sprague-Dawley rat model of complete Freund's adjuvant-induced chronic inflammatory pain assessed as increase in paw withdrawl threshold at 150 microg/kg, IT dosed on day 7 and 14 measured at 15 to 120 mins post dose relative to control; type: functional; conditions: dose 150 µg/kg; time 7-14 day
# Rattus norvegicus [16] = test: Antinociceptive activity in Sprague-Dawley rat model assessed as maximum possible effect at 30 microg/kg, IT measured every 10 mins for 60 mins by radiant heat tail-flick test relative to control; type: functional; conditions: dose 30 µg/kg, 1 h
# [17] = Stability of compound in rat CSF assessed as half life at 1 mM incubated for 24 hrs by UPLC-MS analysis; type: ADME, tissue-based, Cerebrospinal fluid
# Rattus norvegicus [18] = test: Antinociceptive activity in Sprague-Dawley rat model of formalin-induced nociception pain assessed as reduction in pain behaviour by measuring less lifting of formalin injected hind paw during acute phase at 30 to 150 microg/kg, IT measured for 9 mins; type: functional, organism-based; conditions: dose 30-150 µg/kg
# [19] = Induction of hypothermia in Sprague-Dawley rat assessed as reduction in body temperature at 150 microg/kg, IT measured every 10 mins upto 60 mins by thermistor probe analysis; conditions: in vivo, icv_or_intrathecal, 0.15 mg/kg, dose 150 µg/kg
# Rattus norvegicus [20] = test: Antinociceptive activity in Sprague-Dawley rat model assessed as maximum possible effect at 90 microg/kg, IT measured every 10 mins for 60 mins by radiant heat tail-flick test relative to control; type: functional; conditions: dose 90 µg/kg, 1 h
# Rattus norvegicus [21] = test: Antinociceptive activity in Sprague-Dawley rat model assessed as maximum possible effect at 10 microg/kg, IT measured every 10 mins for 60 mins by radiant heat tail-flick test relative to control; type: functional; conditions: dose 10 µg/kg, 1 h
# [22] = target: T1, Neurotensin receptor type 2; test: Binding affinity to NTS2 (unknown origin)
# [23] = Toxicity in Sprague-Dawley rat assessed as induction of ataxia at 1 microg/kg, IT; conditions: in vivo, icv_or_intrathecal, 0.001 mg/kg, dose 1 µg/kg
# Rattus norvegicus [24] = test: Antinociceptive activity in Sprague-Dawley rat model of formalin-induced nociception pain assessed as reduction in pain behaviour by measuring less lifting of formalin injected hind paw during acute phase at 1 microg/kg, IT measured for 9 mins; type: functional, organism-based; conditions: dose 1.0 µg/kg
# [25] = Toxicity in Sprague-Dawley rat assessed as induction of dizziness at 1 microg/kg, IT; conditions: in vivo, icv_or_intrathecal, 0.001 mg/kg, dose 1 µg/kg
# [26] = Toxicity in Sprague-Dawley rat assessed as induction of hyperactivity at 1 microg/kg, IT; conditions: in vivo, icv_or_intrathecal, 0.001 mg/kg, dose 1 µg/kg
# [27] = Toxicity in Sprague-Dawley rat assessed as induction of tremor at 1 microg/kg, IT; conditions: in vivo, icv_or_intrathecal, 0.001 mg/kg, dose 1 µg/kg
# Rattus norvegicus [28] = test: Antinociceptive activity in Sprague-Dawley rat model of formalin-induced nociception pain assessed as reduction in pain behaviour by measuring less lifting of formalin injected hind paw during inflammatory phase at 1 microg/kg, IT; type: functional, organism-based; conditions: dose 1.0 µg/kg
# [29] = Toxicity in Sprague-Dawley rat assessed as induction of abnormal gait at 1 microg/kg, IT; conditions: in vivo, icv_or_intrathecal, 0.001 mg/kg, dose 1 µg/kg
# [30] = Toxicity in Sprague-Dawley rat assessed as induction of drowsiness at 1 microg/kg, IT; conditions: in vivo, icv_or_intrathecal, 0.001 mg/kg, dose 1 µg/kg
# [31] = target: T2, Neurotensin receptor type 1; test: Displacement of [125I]Tyr3-neurotensin from human recombinant NTS1 stably expressed in CHO cell membranes; design: species or system Cell membrane
# Rattus norvegicus [32] = test: Antinociceptive activity in Sprague-Dawley rat model assessed as maximum possible effect at 10 mg/kg, sc measured every 10 mins for 60 mins by radiant heat tail-flick test relative to control; type: functional; conditions: 1 h
# Rattus norvegicus [33] = test: Antinociceptive activity in Sprague-Dawley rat model administered subcutaneously and measured every 10 mins for 60 mins by radiant heat tail-flick test; type: functional, organism-based; conditions: dose 1-10 mg/kg
# Rattus norvegicus [34] = species on record: Rattus norvegicus; test: animal or person; conditions: Sprague-Dawley, sc, 1 h
# Description: Antinociceptive activity in Sprague-Dawley rat model assessed as effective dose administered subcutaneously and measured every 10 mins for 60 mins by radiant heat tail-flick test
# [35] = Induction of hypothermia in Sprague-Dawley rat assessed as drop in body temperature at 30 microg/kg, IT measured every 10 mins upto 60 mins by thermistor probe analysis; conditions: in vivo, icv_or_intrathecal, 0.03 mg/kg, dose 30 µg/kg
# Ileum [36] = test: Myorelaxant activity in Sprague-Dawley rat ileum assessed as reduction in carbachol-induced contractions by force transducer relaxation assay; type: functional, tissue-based
# [37] = target: T2, Neurotensin receptor type 1; test: Displacement of [3H]-neurotensin from NTS1 in human HT-29 cell membrane incubated for 20 mins by liquid scintillation counter analysis; type: cell membranes
# [38] = target: Neurotensin receptor type 1 (Mus musculus, UniProt O88319); test: Displacement of [3H]-neurotensin from NTS1 in mouse brain membrane incubated for 30 mins by liquid scintillation counter analysis; type: cell membranes
# Neurotensin receptor type 1 (Mus musculus, UniProt O88319), sequence (O88319 whole entry): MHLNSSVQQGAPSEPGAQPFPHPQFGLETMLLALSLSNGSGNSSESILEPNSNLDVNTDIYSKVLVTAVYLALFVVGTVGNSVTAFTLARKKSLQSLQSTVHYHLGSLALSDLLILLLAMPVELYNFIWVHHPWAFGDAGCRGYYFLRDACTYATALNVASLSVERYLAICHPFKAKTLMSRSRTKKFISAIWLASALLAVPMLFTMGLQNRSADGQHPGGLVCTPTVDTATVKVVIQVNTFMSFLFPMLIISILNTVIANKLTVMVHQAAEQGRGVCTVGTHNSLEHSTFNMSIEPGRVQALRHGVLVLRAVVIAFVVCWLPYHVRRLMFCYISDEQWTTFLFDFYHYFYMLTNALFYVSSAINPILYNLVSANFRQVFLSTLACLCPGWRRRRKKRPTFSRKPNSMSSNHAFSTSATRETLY
# T1 sequence (O95665 whole entry): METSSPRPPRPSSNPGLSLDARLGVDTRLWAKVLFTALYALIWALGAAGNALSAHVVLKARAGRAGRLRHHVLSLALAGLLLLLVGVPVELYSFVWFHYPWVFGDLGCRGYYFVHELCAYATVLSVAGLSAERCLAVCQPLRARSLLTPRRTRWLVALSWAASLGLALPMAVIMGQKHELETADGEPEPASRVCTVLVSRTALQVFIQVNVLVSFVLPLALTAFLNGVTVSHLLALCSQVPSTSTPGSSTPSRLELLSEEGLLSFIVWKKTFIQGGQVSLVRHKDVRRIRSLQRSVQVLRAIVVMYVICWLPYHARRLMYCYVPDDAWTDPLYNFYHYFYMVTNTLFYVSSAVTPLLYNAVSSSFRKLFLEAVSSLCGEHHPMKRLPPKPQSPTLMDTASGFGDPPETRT
# T2 sequence (P30989 whole entry): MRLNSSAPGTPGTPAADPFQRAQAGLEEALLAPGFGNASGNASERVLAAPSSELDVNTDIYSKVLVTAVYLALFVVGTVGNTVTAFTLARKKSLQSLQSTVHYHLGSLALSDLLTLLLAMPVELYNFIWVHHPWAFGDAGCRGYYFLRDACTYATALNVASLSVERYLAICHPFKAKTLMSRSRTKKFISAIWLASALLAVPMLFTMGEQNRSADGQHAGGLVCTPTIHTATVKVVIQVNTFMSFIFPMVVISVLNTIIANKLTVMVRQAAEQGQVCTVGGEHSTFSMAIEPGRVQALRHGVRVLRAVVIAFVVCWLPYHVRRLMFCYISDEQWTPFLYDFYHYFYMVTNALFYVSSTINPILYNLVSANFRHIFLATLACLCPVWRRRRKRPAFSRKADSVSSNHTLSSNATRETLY
smiles,measurement,setting,value
CC(C)C[C@H](NC(=O)[C@H](Cc1ccc(O)cc1)NC(=O)[C@@H]1C/C=C\C[C@H](N)C(=O)N[C@@H](CCCCN)C(=O)N[C@@H](CCCCN)C(=O)N1)C(=O)O,Activity,Rattus norvegicus [1],Dose-dependent effect
same,Activity,[2],Non-Toxic
same,Activity,[3],Non-Toxic
same,Activity,Ileum [4],Non-Toxic
same,ED50,Rattus norvegicus [5],0.0438 mg/kg
same,Activity,Rattus norvegicus [6],Active
same,Activity,[7],Toxic
same,MPE,Rattus norvegicus [8],73.1%
same,Ki,[9],0.05 µM
same,half-life at 1000 µM,[10],15 min
same,Ki,[11],> 100 µM
same,Activity,Rattus norvegicus [12],Active
same,Emax,Rattus norvegicus [13],90 µg/kg
same,MPE,Rattus norvegicus [14],98.5%
same,Activity,Rattus norvegicus [15],<=45%
same,MPE,Rattus norvegicus [16],32.5%
same,half-life at 1000 µM,[17],> 1440 min
same,Activity,Rattus norvegicus [18],Active
same,Activity,[19],Non-Toxic
same,MPE,Rattus norvegicus [20],98.6%
same,MPE,Rattus norvegicus [21],13.1%
CC[C@H](C)[C@H](NC(=O)[C@@H]1Cc2ccc(O)c(c2)C/C=C/CNCCC[C@H](N)C(=O)N[C@@H](CCCCN)C(=O)N2CCC[C@H]2C(=O)N1)C(=O)N[C@@H](CC(C)C)C(=O)O,Ki,[22],0.0045 µM
same,MPE,Rattus norvegicus [14],50%
CSCC[C@@H]1NC(=O)[C@H](CC(C)C)NC(=O)[C@H](CCCNC(=N)N)NC(=O)[C@H](CO)NC(=O)[C@@H]2CSSC[C@@H]3NC(=O)[C@H](CO)NC(=O)CNC(=O)[C@H]([C@@H](C)O)NC(=O)[C@H](CSSC[C@H](N)C(=O)N[C@@H](CCCCN)C(=O)NCC(=O)N[C@@H](CCCCN)C(=O)NCC(=O)N[C@@H](C)C(=O)N[C@@H](CCCCN)C(=O)N2)NC(=O)[C@H](CSSC[C@@H](C(N)=O)NC(=O)[C@H](CCCCN)NC(=O)CNC(=O)[C@H](CO)NC(=O)[C@H](CCCNC(=N)N)NC3=O)NC(=O)[C@H](CC(=O)O)NC(=O)[C@H](Cc2ccc(O)cc2)NC1=O [ZICONOTIDE],Activity,[23],Toxic
same,Activity,Rattus norvegicus [24],Active
same,Activity,[25],Toxic
same,Activity,[26],Toxic
same,Activity,[27],Toxic
same,Activity,Rattus norvegicus [28],Active
same,Activity,[29],Toxic
same,Activity,[30],Toxic
CC[C@H](C)[C@H](NC(=O)[C@@H]1Cc2ccc(O)c(c2)C/C=C/CNCCCC[C@H](N)C(=O)N[C@@H](CCCCN)C(=O)N2CCC[C@H]2C(=O)N1)C(=O)N[C@@H](CC(C)C)C(=O)O,Ki,[22],11 µM
CC[C@H](C)[C@H](NC(=O)[C@@H]1Cc2ccc(cc2)OCCCCCC(=O)N[C@H](CCCNC(=N)N)C(=O)N2CCC[C@H]2C(=O)N1)C(=O)N[C@@H](CC(C)C)C(=O)O,Ki,[31],0.45 µM
CN1CC[C@]23c4c5ccc(O)c4O[C@H]2[C@@H](O)C=C[C@H]3[C@H]1C5 [MORPHINE],MPE,Rattus norvegicus [32],83.3%
same,Activity,Rattus norvegicus [33],Dose-dependent effect
same,ED50,Rattus norvegicus [34],3.6 mg/kg
CC[C@H](C)[C@H](NC(=O)[C@@H]1Cc2ccc(O)c(c2)C/C=C/CCCCCCC(=O)N[C@@H](CCCCN)C(=O)N2CCC[C@H]2C(=O)N1)C(=O)N[C@@H](CC(C)C)C(=O)O,Ki,[22],> 0.001 µM
CCOC(=O)[C@H](CC(C)C)NC(=O)[C@@H](NC(=O)[C@H](Cc1c[nH]c2ccccc12)NC(=O)[C@@H]1CCCN1C(=O)[C@H](CCCCN)NC[C@@H](N)CCCCN)C(C)(C)C (H-[X3]PW[Tle]L-OEt),deltaT,[35],3 °C
CC[C@H](C)[C@H](NC(=O)[C@@H]1Cc2ccc(O)c(c2)C/C=C/CCCCCC[C@H](N)C(=O)N[C@@H](CCCCN)C(=O)N2CCC[C@H]2C(=O)N1)C(=O)N[C@@H](CC(C)C)C(=O)O,Ki,[22],0.024 µM
CC[C@H](C)[C@H](NC(=O)[C@H](Cc1ccc(O)cc1)NC(=O)[C@@H]1CCCN1C(=O)[C@H](CCCNC(=N)N)NC(=O)[C@@H](N)CCCNC(=N)N)C(=O)N[C@@H](CC(C)C)C(=O)O,Activity,[2],<= 50 mmHg
same,Activity,Ileum [36],Dose-dependent effect
same,EC50,Ileum [36],0.0039 µM
same,half-life at 1000 µM,[10],1.6 min
same,half-life at 1000 µM,[17],894 min
CC(C)C[C@H](NC(=O)[C@@H]1CCC(=O)NCC(=O)N(C)[C@@H](CCCNC(=N)N)C(=O)N[C@@H](CCCCN)C(=O)N2CCCC2C(=O)N[C@@H](Cc2c[nH]c3ccccc23)C(=O)N1)C(=O)O (some centres not stated) (G[NMeR]K[ξP]WEL-OH; lactam N-6),Ki,[37],3.5 µM
CN[C@@H](CCCNC(=N)N)C(=O)N[C@H]1CSSC(C)(C)[C@@H](C(=O)N[C@@H](CC(C)C)C(=O)O)NC(=O)[C@H](Cc2c[nH]c3ccccc23)NC(=O)[C@@H]2CCCN2C1=O (H-[NMeR]CPW[Pen]L-OH; disulfide 2-5),Ki,[38],0.083 µM
CC(C)C[C@H](NC(=O)[C@@H]1CCCC(=O)N[C@@H](CCCNC(=N)N)C(=O)N[C@@H](CCCCN)C(=O)N2CCC[C@H]2C(=O)N[C@@H](Cc2c[nH]c3ccccc23)C(=O)N1)C(=O)O (RKPW[Aad]L-OH; lactam N-5),Ki,[38],0.016 µM
